These results are taken from PubChem BioAssay AID330 (DTP/NCI, 2004).

For the experiment, the system named is P388 leukemia ip, CD2F1 mice, survival T/C. The experiment in a line: NCI In Vivo Anticancer Drug Screen. Data for tumor model P388 Leukemia (intraperitoneal) in CD2F1 (CDF1) mice. Conditions: endpoint: median survival time, higher = longer survival. The method in brief:
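Mice carrying the transplanted tumor received test compound or vehicle. Survival was recorded in each group, and the value is the treated-group measurement divided by that of the vehicle-treated control group.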

[1] abbreviates: dose: 100.0 mg/kg/injection, schedule: Q01DX009 (ip), vehicle: saline with Tween-80.
[2] abbreviates: dose: 200.0 mg/kg/injection, schedule: Q01DX009 (ip), vehicle: saline with Tween-80.
Where [3] appears, read: dose: 50.0 mg/kg/injection, schedule: Q01DX005 (ip), vehicle: saline with Tween-80.
The mark [4] stands for this setting: dose: 100.0 mg/kg/injection, schedule: Q01DX005 (ip), vehicle: saline with Tween-80.
[5] abbreviates: dose: 200.0 mg/kg/injection, schedule: Q01DX005 (ip), vehicle: saline with Tween-80.
Setting [6] is: dose: 50.0 mg/kg/injection, schedule: Q01DX005 (ip), vehicle: Klucel (hydroxypropylcellulose) (HPC).
Setting [7] is: dose: 100.0 mg/kg/injection, schedule: Q01DX005 (ip), vehicle: Klucel (hydroxypropylcellulose) (HPC).
Where [8] appears, read: dose: 200.0 mg/kg/injection, schedule: Q01DX005 (ip), vehicle: Klucel (hydroxypropylcellulose) (HPC).
[9] abbreviates: dose: 60.0 mg/kg/injection, schedule: Q01DX005 (ip), vehicle: saline with Tween-80.
The mark [10] stands for this setting: dose: 120.0 mg/kg/injection, schedule: Q01DX005 (ip), vehicle: saline with Tween-80.
[11] abbreviates: dose: 25.0 mg/kg/injection, schedule: Q01DX005 (ip), vehicle: Klucel (hydroxypropylcellulose) (HPC).
Setting [12] is: dose: 240.0 mg/kg/injection, schedule: Q01DX005 (ip), vehicle: saline with Tween-80.

The structures appear in SMILES notation. Values joined by “and” are separate entries in the source; they are usually repeats but may differ in a detail not shown here. Identical values can stand only once. Inconclusive results and toxic doses are left out. Peptide text beside a SMILES is read from it. * marks the point of attachment. Cbz = O=C(OCc1ccccc1)*

As for `CCOC(=O)NC(C)(C)CN(C(=O)OCC)c1ccccc1`, the T/C under setting [1] is 94 % of control; the T/C under setting [2] was 116 % of control; the T/C (dose: 200.0 mg/kg/injection, schedule: Q04DX003 (ip), vehicle: saline with Tween-80) was 95 % of control; the T/C (dose: 400.0 mg/kg/injection, schedule: Q01DX009 (ip), vehicle: saline with Tween-80) is 116 % of control; the T/C (dose: 400.0 mg/kg/injection, schedule: Q04DX003 (ip), vehicle: saline with Tween-80) was 104 % of control.

With `c1ccc(C(=C2CCCCC2)c2ccccc2)cc1`, the T/C under setting [3] was 100 % of control, the T/C under setting [4] was 100 % of control and the T/C under setting [5] was 98 % of control.

Take `CCOC(=O)C1CC1C1=C(C)c2cc3[n-]c(cc4nc(cc5[n-]c(cc1n2)c(C)c5CCC(=O)OC)C(CCC(=O)OC)=C4C)c(C)c3C1CC1C(=O)OCC.[Cl-].[Fe+3]` (stereo not given): the T/C runs as follows: under setting [6], 102 % of control; under setting [7], 86 % of control; under setting [8], 100 % of control.

On to `O=C1C=CC(=Nc2ccc3c(c2)C(Br)c2ccccc2-3)O1` (stereo not given), for which the T/C is, setting by setting: (dose: 4.0 mg/kg/injection, schedule: Q01DX009 (ip), vehicle: saline with Tween-80) 113 % of control; (dose: 6.0 mg/kg/injection, schedule: Q01DX009 (ip), vehicle: saline with Tween-80) 104 % of control; (dose: 6.25 mg/kg/injection, schedule: Q04DX003 (ip), vehicle: saline with Tween-80) 113 % of control; (dose: 9.0 mg/kg/injection, schedule: Q01DX009 (ip), vehicle: saline with Tween-80) 90 % of control; (dose: 12.5 mg/kg/injection, schedule: Q01DX009 (ip), vehicle: saline with Tween-80) 113 % of control; (dose: 12.5 mg/kg/injection, schedule: Q04DX003 (ip), vehicle: saline with Tween-80) 100 % of control. In addition, the T/C (dose: 25.0 mg/kg/injection, schedule: Q04DX003 (ip), vehicle: saline with Tween-80) was 113 % of control.

With `Cc1n[nH]c(=O)c(C#N)c1C`, the T/C by setting is: under setting [6], 95 % of control; under setting [7], 100 % of control; under setting [8], 95 % of control.

On to `O=[N+]([O-])c1c(Cl)sc(Cl)c1[N+](=O)[O-]`, for which the T/C is 105 % of control (dose: 1.56 mg/kg/injection, schedule: Q01DX009 (ip), vehicle: saline with Tween-80); 104 % of control (dose: 3.12 mg/kg/injection, schedule: Q01DX009 (ip), vehicle: saline with Tween-80); 87 % of control and 95 % of control (dose: 6.25 mg/kg/injection, schedule: Q01DX009 (ip), vehicle: saline with Tween-80); 110 % of control (dose: 6.25 mg/kg/injection, schedule: Q04DX003 (ip), vehicle: saline sonified); 100 % of control (dose: 12.5 mg/kg/injection, schedule: Q04DX003 (ip), vehicle: saline sonified); 100 % of control (dose: 25.0 mg/kg/injection, schedule: Q04DX003 (ip), vehicle: saline sonified).

`COc1ccc2c(N=[N+]=[N-])ccnc2c1`: the T/C by setting is: under setting [9], 89 % of control; under setting [10], 89 % of control.

With `Cn1c(C(=O)c2cc3ccccc3n2C)cc2ccccc21`, the T/C is, setting by setting: (dose: 50.0 mg/kg/injection, schedule: Q01DX009 (ip), vehicle: saline) 100 % of control; (dose: 100.0 mg/kg/injection, schedule: Q01DX009 (ip), vehicle: saline) 97 % of control; (dose: 200.0 mg/kg/injection, schedule: Q01DX009 (ip), vehicle: saline) 103 % of control.

With `CS(=O)CC(C)(O)C1OC(=O)C=C2C3(C)CC4OC4C4(C)C(=O)OC(C34)C3OC231` (stereo not given), the T/C (dose: 2.5 mg/kg/injection, schedule: Q01DX009 (ip), vehicle: DMSO) is 108 % of control and the T/C (dose: 20.0 mg/kg/injection, schedule: Q01DX009 (ip), vehicle: DMSO) was 151 % of control.

Regarding `Nc1ccc(Cl)cn1`, the T/C was 90 % of control (dose: 50.0 mg/kg/injection, schedule: Q01DX009 (ip), vehicle: saline with Tween-80); 99 % of control under setting [1]; 99 % of control under setting [2].

Take `CCN(CC)Cc1cc(N=Nc2cc(OC)c(N=Nc3ccc([N+](=O)[O-])cc3)cc2OC)c2cccnc2c1O`: the T/C under setting [11] was 107 % of control; the T/C under setting [6] is 106 % of control and 107 % of control and 114 % of control; the T/C under setting [7] is 112 % of control and 117 % of control and 123 % of control; the T/C under setting [8] was 112 % of control and 117 % of control; the T/C (dose: 400.0 mg/kg/injection, schedule: Q01DX005 (ip), vehicle: Klucel (hydroxypropylcellulose) (HPC)) is 116 % of control.

On to `CS/C(=N\S(=O)(=O)c1ccccc1)NNC(=O)c1c(-c2c(Cl)cccc2Cl)noc1C`, for which the T/C under setting [9] is 100 % of control, the T/C under setting [10] is 100 % of control and the T/C under setting [12] is 91 % of control.

For `CCc1cccc2c(NCCCCCCCCCCNc3c4ccccc4nc4c(CC)cccc34)c3ccccc3nc12`, the T/C reads like this: (dose: 0.62 mg/kg/injection, schedule: Q## X009 (ip), vehicle: lactic acid) 104 % of control; (dose: 1.25 mg/kg/injection, schedule: Q## X009 (ip), vehicle: lactic acid) 107 % of control; (dose: 2.5 mg/kg/injection, schedule: Q## X009 (ip), vehicle: lactic acid) 113 % of control.

Turning to `O=c1[nH]c2cc(Cl)ccc2nc1/C=C(\O)c1ccccc1O`, the T/C runs as follows: under setting [9], 86 % of control and 95 % of control; under setting [10], 92 % of control; under setting [12], 89 % of control and 96 % of control.

Turning to `CN1CCc2nc(N)nc(-c3nc(N)nc4c3CN(C)CC4)c2C1`, the T/C is, setting by setting: (dose: 60.0 mg/kg/injection, schedule: Q01DX005 (ip), vehicle: saline) 100 % of control; (dose: 120.0 mg/kg/injection, schedule: Q01DX005 (ip), vehicle: saline) 104 % of control; (dose: 240.0 mg/kg/injection, schedule: Q01DX005 (ip), vehicle: saline) 106 % of control.

Take `CCN(CC)C(=O)c1c(OC)cc(C)cc1C(O)c1cc(OC)cc(OC)c1` (stereo not given): the T/C reads like this: under setting [3], 99 % of control; under setting [4], 99 % of control; under setting [5], 96 % of control.

`COC(=O)c1[nH]c(=S)[nH]c(=O)c1C`: the T/C is 89 % of control under setting [3] and 97 % of control under setting [4].

On to `CNCC(C(=O)c1ccccc1)C(=O)c1ccccc1`, for which the T/C was 95 % of control under setting [3], 101 % of control under setting [4] and 110 % of control under setting [5].

For `COc1cc2c(cc1C(C)c1ccc(OCc3ccccc3)cc1)OCO2` (stereo not given), the T/C by setting is: (dose: 25.0 mg/kg/injection, schedule: Q01DX005 (ip), vehicle: distilled water + Tween-80) 99 % of control; (dose: 50.0 mg/kg/injection, schedule: Q01DX005 (ip), vehicle: distilled water + Tween-80) 98 % of control; (dose: 100.0 mg/kg/injection, schedule: Q01DX005 (ip), vehicle: distilled water + Tween-80) 90 % of control and 94 % of control; (dose: 200.0 mg/kg/injection, schedule: Q01DX005 (ip), vehicle: distilled water + Tween-80) 90 % of control and 91 % of control.

As for `CC1=NN(c2ccccc2)C(=O)C1=Nc1c(C)[nH]n(-c2ccccc2)c1=O`, the T/C is 103 % of control (dose: 15.0 mg/kg/injection, schedule: Q01DX009 (ip), vehicle: saline with Tween-80); 101 % of control (dose: 30.0 mg/kg/injection, schedule: Q01DX009 (ip), vehicle: saline with Tween-80); 114 % of control and 96 % of control under setting [3]; 105 % of control (dose: 60.0 mg/kg/injection, schedule: Q01DX009 (ip), vehicle: saline with Tween-80); 104 % of control and 102 % of control under setting [4]; 98 % of control and 110 % of control under setting [5].

On to `CC(C)CC(NC(=O)C(Cc1ccccc1)NC(=O)OCc1ccccc1)C(=O)O` (stereo not drawn) (Cbz-Phe-Leu-OH; configuration not given here), for which the T/C reads like this: under setting [3], 108 % of control; under setting [4], 105 % of control.

As for `Cn1c(SCC(=O)O)nnc1C1CCC(=O)N1Cc1ccccc1` (stereo not given), the T/C is 110 % of control under setting [9], 103 % of control under setting [10] and 98 % of control under setting [12].

Consider `O=C(NC(Cc1c[nH]c2ccccc12)C(=O)O)c1ccccc1[N+](=O)[O-]` (stereo not given), for which the T/C is 93 % of control (dose: 6.25 mg/kg/injection, schedule: Q01DX005 (ip), vehicle: Klucel (hydroxypropylcellulose) (HPC)); 108 % of control (dose: 12.5 mg/kg/injection, schedule: Q01DX005 (ip), vehicle: Klucel (hydroxypropylcellulose) (HPC)); 97 % of control under setting [11].
